# In patent US20150311441A1, “METAL COMPLEX COMPOUND, AND ORGANIC LIGHT-EMITTING ELEMENT AND DISPLAY DEVICE CONTAINING THE SAME” (CANON KABUSHIKI KAISHA, priority 2014, published 2015):
# Assay: Stability to water of a deposition film
# Conditions: for State of the film after 5 min (stability to water): 100 nm deposition film on glass substrate, water dropped on film, state after 5 minutes measured with thickness profiler (Alpha-Step); for Dissolution of the film in water: deposition film in contact with water, summary of the Table 1 test
# Experimental: The stability to water of the metal complex compound was examined. A deposition film was formed to a thickness of 100 nm on a glass substrate, and water was dropped on the deposition film. After 5 minutes, the state of the film was measured with a thickness profiler (Alpha-Step). Also, the stability to water of lithium fluoride and cesium fluoride, which are generally used as an electron injection material, were examined for comparison.
smiles,measurement,value
"[F-].[Li+] [compound 1, lithium fluoride]",State of the film after 5 min (stability to water),Dissolved
same,Dissolution of the film in water,dissolved in water immediately
"[Cs+].[F-] [compound 2, cesium fluoride]",State of the film after 5 min (stability to water),Dissolved
same,Dissolution of the film in water,dissolved in water immediately
